Laboratory results: patent US8802695B2, “Apoptosis signal-regulating kinase 1 inhibitors” (Takeda Pharmaceutical Company Limited, priority 2010, dated 2014)

Assays:
ASK1 [1] = target: T1, ASK1 (Homo sapiens (Human), UniProt Q99683); test: Homogeneous Time-Resolved Fluorescence (HTRF) assay for inhibitory effect against ASK1 (Example C; KinEASE STK S3 kit); format: biochemical; conditions: 25 nM ASK1, 100 μM ATP, read-out: Enzyme Activity C IC50
From the text: (§1) The inhibitory effect of the compound of the invention on ASK1 may be evaluated by evaluating the phosphorylating activity of the enzyme on a known substrate with or without the presence of the test compound. Example B provides such an assay where myelin basic protein (Wako) is used as substrate and detection is by scintillation counting. It should be understood other substrates and detection mechanism may be used. A commercially available a kit, Cisbio's HTRF® KinEASE™ STK kit, has shown to be useful for evaluating ASK1 activity. The assay uses an anti-phosphoseric specific, Eu^3+-Cryptate labeled antibody to mark the phosphorylated product of ASK1 on a biotinylated kinase substrate, and detection is by time resolved fluorescence using XL665 labeled streptavidin. The fluorescence intensity is proportional to the amount of product formation. Example C provides the assay protocol.
Homogeneous Time-Resolved Fluorescence (HTRF) Assay for Measuring the Inhibitory Effect of Exemplified Compounds of the Invention Against ASK1
Recombinant human ASK1 is purchased from Millipore (Cat #14-606). The enzymatic assay of ASK1 is set up by using HTRF® KinEASE™ STK S3 kit, the Universal Assay for Serine/Threonine Kinases kit from CisBio.
The inhibitory properties of compounds to ASK1 may be determined using a white 384-well-plate format under the following reaction conditions: 25 nM ASK1, 1 μM CisBio STK S3-biotion peptide, 100 μM ATP, and 1%-2% DMSO in kinase assay buffer of 50 mM HEPES, pH 7.3, 10 mM NaCl, 10 mM MgCl2, 0.01% Brij35, 0.2 mM EDTA, and 1 mM DTT. Reaction product is determined quantitatively by HTRF after the addition of detection reagent SA-XL665 and STK-antibody-cryptate.
The assay reaction may be initiated as follows: 2 μl of the mixture of 3 μM CisBio STK S3-biotion peptide and 300 μM ATP with 2 μl of test compound (2 fold serial dilutions for 11 data points for each inhibitor) containing 3%-6% DMSO are added to each well of the plate, followed by the addition of 2 μL of 75 nM ASK1 to initiate the reaction (final enzyme concentration was 25 nM for ASK1). The reaction mixture may then be incubated at room temperature for 1 hour, and quenched and developed by the addition of 6 μL of 100-fold diluted STK-antibody-Cryptate and 250 nM SA-XL665 in Cisbio HTRF detection buffer (50 mM HEPES, pH7.0, 0.1% BSA, 0.8 M KF, and 20 mM EDTA). The fluorescence intensity is measured at 620 nm (Cryptate) and 665 nm (XL665) after a 1-2 hour incubation at room temperature. A ratio is calculated (665/620) for each well and is fitted to the standard IC50 curve to determine inhibition constants (IC50).
Target sequence in this assay (Q99683 649-946): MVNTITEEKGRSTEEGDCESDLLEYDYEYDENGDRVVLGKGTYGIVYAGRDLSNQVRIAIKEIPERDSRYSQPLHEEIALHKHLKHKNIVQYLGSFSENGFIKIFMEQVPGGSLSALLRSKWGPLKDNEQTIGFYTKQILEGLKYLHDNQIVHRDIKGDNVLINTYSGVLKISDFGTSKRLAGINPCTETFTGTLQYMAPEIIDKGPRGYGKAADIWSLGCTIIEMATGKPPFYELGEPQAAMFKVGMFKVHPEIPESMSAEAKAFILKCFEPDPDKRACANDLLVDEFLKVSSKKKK

ASK1 [2] = target: T1, ASK1; test: Scintillation assay for inhibitory effect against ASK1 (Example B; myelin basic protein substrate, [γ-32P]ATP); format: biochemical; conditions: 2.5 μM ATP solution, read-out: Enzyme Activity B IC50
From the text: as §1
Target sequence in this assay (Q99683 650-1374): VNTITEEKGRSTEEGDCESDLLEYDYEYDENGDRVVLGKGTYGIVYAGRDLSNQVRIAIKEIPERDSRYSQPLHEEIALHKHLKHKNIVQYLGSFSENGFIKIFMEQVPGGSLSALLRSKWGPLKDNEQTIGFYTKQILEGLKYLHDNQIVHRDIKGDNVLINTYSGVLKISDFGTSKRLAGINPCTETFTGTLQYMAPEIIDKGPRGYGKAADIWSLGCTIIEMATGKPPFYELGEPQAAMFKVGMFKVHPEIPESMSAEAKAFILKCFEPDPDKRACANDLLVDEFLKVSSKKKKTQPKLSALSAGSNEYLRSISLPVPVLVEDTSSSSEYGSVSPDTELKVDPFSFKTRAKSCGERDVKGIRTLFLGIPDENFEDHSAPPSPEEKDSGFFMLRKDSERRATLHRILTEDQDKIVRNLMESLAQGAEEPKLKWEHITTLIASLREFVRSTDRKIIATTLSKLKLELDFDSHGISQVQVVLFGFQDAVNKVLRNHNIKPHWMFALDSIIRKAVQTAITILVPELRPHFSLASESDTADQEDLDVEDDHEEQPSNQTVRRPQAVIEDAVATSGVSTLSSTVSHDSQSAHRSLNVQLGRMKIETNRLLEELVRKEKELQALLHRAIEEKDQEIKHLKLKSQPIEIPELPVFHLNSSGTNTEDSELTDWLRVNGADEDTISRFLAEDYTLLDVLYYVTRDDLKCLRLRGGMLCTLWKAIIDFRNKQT
Cloning of cDNA encoding human ASK1 was conducted by PCR using primers, 5′-[…] […]-3′ (SEQ ID NO: 1) and 5′-AAAGCGGCCGCTCAA […]-3′ (SEQ ID NO: 2), from human heart cDNA library (Becton, Dickinson and Company). The PCR product was subjected to agarose gel (1%) electrophoresis, a 2.2 kb DNA fragment containing an ASK1 gene was recovered from the gel, and then digested with restriction enzymes, NotI and SalI, and inserted into a plasmid pFASTBAC1 (Invitrogen) to prepare a plasmid pFB-ASK1. The insert was verified by sequencing. Recombinant baculovirus was prepared according to the procedure of the Bac-to-Bac baculovirus expression system (Invitrogen).
Sf-21 cells were seeded to achieve 1×10^6 cells/mL in 100 mL of Sf-900 II SFM medium (Invitrogen) which contains 10% fetal calf serum and then cultured at 27° C. for 24 hrs. To express ASK1 in cells, 0.15 mL of the recombinant baculovirus virus stock was added to cells, and the then cultured for 60 hrs. The cells were separated from the culture solution by centrifugation at 3000 rpm for 10 min and washed once with PBS. The cells were suspended in 10 mL of lysis buffer (25 mM HEPES (pH 7.5), 1% Triton X, 130 mM NaCl, 1 mM EDTA, 1 mM DTT, 25 mM (3-glycerophosphate, Protease inhibitor complete (Roche), 1 mM sodium orthovanadate) and ruptured by four times of treatment with a homogenizer (POLYTRON) at 20000 rpm for 30 seconds. Active ASK1 protein was purified from a supernatant obtained by centrifugal separation at 40000 rpm for 45 min using anti-FLAG M2 Affinity Gel (Sigma).
Scintillation Assay for Measuring the Inhibitory Effect of Exemplified Compounds of the Invention Against ASK1
The test compounds (2.5 μL) dissolved in DMSO were added to wells containing 37.5 μL of the reaction solution (25 mM HEPES (pH 7.5), 10 mM magnesium acetate, 1 mM DTT) including 30 ng of active ASK1 protein and 1 μg of myelin basic protein (Wako), and incubated at room temperature for 5 min. To start the reaction, 10 μL of ATP solution (2.5 μM ATP, 0.1 μCi [γ-^32P]ATP) was added to wells. After incubating at room temperature for 30 min, the reaction was terminated by adding 50 μL of 20% TCA solution. The reaction solution was incubated at 4° C. for 30 min and an acid-insoluble fraction was transferred onto a GF/C filter (Packard) with Cell Harvester (Packard), and washed with 250 mM phosphoric acid. After drying at 45° C. for 60 min., 40 μL of Microscint 0 (Packard) was added and the radioactivity was measured with TopCount (Packard). The concentrations (IC50 value) of the test compounds necessary for 50% inhibition of kinase activity were calculated by PRISM 3.0 (Graphpad Software).

| SMILES | melting point [°C] | IC50 (ASK1 [1]) [nM] | IC50 (ASK1 [2]) [nM] |
| --- | --- | --- | --- |
| Cn1cc(Cl)c2cnc(NC(=O)c3ccc([C@](C)(O)CO)cc3)cc21 [Compound 29, (S)—N-(3-chloro-1-methyl-1H-pyrrolo[3,2-c]pyridin-6-yl)-4-(1,2-dihydroxypropan-2-yl)benzamide] | 210 to 212 | 38 | – |
| CCn1cc(Cl)c2cnc(NC(=O)c3ccc([C@](C)(O)CO)cc3)cc21 [Compound 26, (S)—N-(3-chloro-1-ethyl-1H-pyrrolo[3,2-c]pyridin-6-yl)-4-(1,2-dihydroxypropan-2-yl)benzamide] | 223 to 223.9 | 12 | 9 |
| CCn1cc(Cl)c2cnc(NC(=O)c3ccc([C@@](C)(O)CO)cc3)cc21 [Compound 14, (R)—N-(3-chloro-1-ethyl-1H-pyrrolo[3,2-c]pyridin-6-yl)-4-(1,2-dihydroxypropan-2-yl)benzamide] | 224.4 to 225.1 | 16 | 6 |
| Cn1cc(Cl)c2cnc(NC(=O)c3ccc([C@@](C)(O)CO)cc3)cc21 [Compound 31, (R)—N-(3-chloro-1-methyl-1H-pyrrolo[3,2-c]pyridin-6-yl)-4-(1,2-dihydroxypropan-2-yl)benzamide] | 210 to 212 | 19 | – |
| CCn1cc(Br)c2cnc(NC(=O)c3ccc([C@@](C)(O)CO)cc3)cc21 [Compound 20, (R)—N-(3-bromo-1-ethyl-1H-pyrrolo[3,2-c]pyridin-6-yl)-4-(1,2-dihydroxypropan-2-yl)benzamide] | – | 10 | 2 |
| Cc1cn(C)c2cc(NC(=O)c3ccc(C(C)(C)O)cc3)ncc12 [Compound 19, N-(1,3-dimethyl-1H-pyrrolo[3,2-c]pyridin-6-yl)-4-(2-hydroxypropan-2-yl)benzamide] | – | 29 | 19 |
| CCn1cc(C)c2cnc(NC(=O)c3ccc([C@@](C)(O)CO)cc3)cc21 [Compound 18, (R)-4-(1,2-dihydroxypropan-2-yl)-N-(1-ethyl-3-methyl-1H-pyrrolo[3,2-c]pyridin-6-yl)benzamide] | – | 17 | 14 |
| Cn1cc(Br)c2cnc(NC(=O)c3ccc(C(C)(C)O)cc3)cc21 [Compound 15, N-(3-bromo-1-methyl-1H-pyrrolo[3,2-c]pyridin-6-yl)-4-(2-hydroxypropan-2-yl)benzamide] | – | 10 | 5 |
| Cn1c(Cl)c(Cl)c2cnc(NC(=O)c3ccc([C@](C)(O)CO)cc3)cc21 [Compound 30, (S)—N-(2,3-dichloro-1-methyl-1H-pyrrolo[3,2-c]pyridin-6-yl)-4-(1,2-dihydroxypropan-2-yl)benzamide] | 205 to 208 | – | – |
| C[C@](O)(CO)c1ccc(C(=O)Nc2cc3c(cn2)c(Cl)cn3C2CC2)cc1 [Compound 23, (R)—N-(3-chloro-1-cyclopropyl-1H-pyrrolo[3,2-c]pyridin-6-yl)-4-(1,2-dihydroxypropan-2-yl)benzamide] | – | 6 | 4 |
